Starred links: 1 amine or outer side, 2 acyl side, 3 side chain; linkers in the order of their positions; H or OH if unused. Positions of bridges follow the written chain, without caps; N, C: chain ends. Non-standard residues stand in square brackets, D forms with d. Residues, ends and D or L forms follow the SMILES beside them. *: point of attachment. DOTA = O=C(O)CN1CCN(CC(=O)O)CCN(CC(=O)*)CCN(CC(=O)O)CC1; mXylylene = c1cc(C[*:1])cc(C[*:2])c1; Orn(Me2) = CN(C)CCC[C@H](N)C(=O)O; X2 = O=C(CN1CCC(N[*:1])CC1)[*:2]; αMeL = CC(C)C[C@](C)(N)C(=O)O; Pen = CC(C)(S)[C@H](N)C(=O)O; NMeS = CN[C@@H](CO)C(=O)O; Ac6c = NC1(C(=O)O)CCCCC1; Orn = NCCC[C@H](N)C(=O)O; Dab = NCC[C@H](N)C(=O)O; Thp = NC1(C(=O)O)CCOCC1
Molecular target: T1, CAIX-expressing human HT-29 colorectal cancer cells (Homo sapiens, UniProt Q16790)
T1 construct: CAIX-expressing human HT-29 colorectal cancer cells; host or cells: HT-29 human colorectal cancer cells
Assay: FACS binding assay (IC50 determination, competition with tracer 3BP-2776 or 3BP-4149)
Conditions: FACS binding assay, HT-29 cells, competition with tracer 3BP-2776 (10 nM, biotin-labeled), 4° C., 1 hour; read-out: pIC50 category (activity) (converted)
In short: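 HT-29 cells in FACS buffer (PBS, 1% FCS) at 500.000 cells/ml were exposed to compounds competing with a labelled tracer, with biotinylated compounds detected by 1 μg/mL APC-streptavidin for 30 min on ice. APC/Cy5 median fluorescence was read by flow cytometry and IC50 derived by 4PL fit.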

SMILES | IC50 [nM]
CC(=O)N[C@H](C(=O)N[C@@H](Cc1ccc(O)cc1)C(=O)N[C@H]1CSCc2cccc(c2)CSC[C@@H](C(N)=O)NC(=O)[C@H](CO)NC(=O)[C@H](Cc2c[nH]c3ccccc23)NC(=O)[C@@H]2CCC(=O)NCCC[C@H](NC(=O)[C@H]3CCCN3C(=O)[C@H](CCC(=O)O)NC1=O)C(=O)N[C@@H](Cc1c[nH]c3ccccc13)C(=O)N[C@@H](CC(C)C)C(=O)N2)C(C)C [3BP-3958] (Ac-VYCE[dP][Orn]WLEWSC-NH2; linker 3-12 via mXylylene; lactam 6-9) | 10 to 79.4
CC(=O)N[C@H](C(=O)N[C@@H](Cc1ccc(O)cc1)C(=O)N[C@H]1CSCc2cccc(c2)CSC[C@@H](C(N)=O)NC(=O)[C@H](CO)NC(=O)[C@H](Cc2c[nH]c3ccccc23)NC(=O)[C@@H]2CCC(=O)NCC[C@H](NC(=O)[C@H]3CCCN3C(=O)[C@H](CCC(=O)O)NC1=O)C(=O)N[C@@H](Cc1c[nH]c3ccccc13)C(=O)N[C@@H](CC(C)C)C(=O)N2)C(C)C [3BP-3960] (Ac-VYCE[dP][Dab]WLEWSC-NH2; linker 3-12 via mXylylene; lactam 6-9) | 10 to 79.4
CC(=O)N[C@H](C(=O)N[C@@H](Cc1ccc(O)cc1)C(=O)N[C@H]1CSCc2cccc(c2)CSC[C@@H](C(N)=O)NC(=O)[C@H](CO)NC(=O)[C@H](Cc2c[nH]c3ccccc23)NC(=O)[C@@H]2CCC(=O)NCCCC[C@H](NC(=O)[C@H]3CCCN3C(=O)[C@H](CCC(=O)O)NC1=O)C(=O)N[C@@H](Cc1c[nH]c3ccccc13)C(=O)NC1(CCCCC1)C(=O)N2)C(C)C [3BP-3961] (Ac-VYCE[dP]KW[Ac6c]EWSC-NH2; linker 3-12 via mXylylene; lactam 6-9) | 10 to 79.4
CC(=O)N[C@H](C(=O)N[C@@H](Cc1ccc(O)cc1)C(=O)N[C@H]1CSCc2cccc(c2)CSC[C@@H](C(N)=O)NC(=O)[C@H](CO)NC(=O)[C@H](Cc2c[nH]c3ccccc23)NC(=O)[C@@H]2CCC(=O)NCCCC[C@H](NC(=O)[C@H]3CCCN3C(=O)[C@H](CCC(=O)O)NC1=O)C(=O)N[C@@H](Cc1c[nH]c3ccccc13)C(=O)NC1(CCOCC1)C(=O)N2)C(C)C [3BP-3962] (Ac-VYCE[dP]KW[Thp]EWSC-NH2; linker 3-12 via mXylylene; lactam 6-9) | 100 to 794
CC(=O)N[C@H](C(=O)N[C@@H](Cc1ccc(O)cc1)C(=O)N[C@H]1CSCc2cccc(c2)CSC(C)(C)[C@@H](C(N)=O)NC(=O)[C@H](CO)NC(=O)[C@H](Cc2c[nH]c3ccccc23)NC(=O)[C@@H]2CCC(=O)NCCCC[C@H](NC(=O)[C@H]3CCCN3C(=O)[C@H](CCC(=O)O)NC1=O)C(=O)N[C@@H](Cc1c[nH]c3ccccc13)C(=O)N[C@@H](CC(C)C)C(=O)N2)C(C)C [3BP-3963] (Ac-VYCE[dP]KWLEWS[Pen]-NH2; linker 3-12 via mXylylene; lactam 6-9) | < 10

The next lines start with the values.

IC50 [nM] | SMILES
< 10 | CC(=O)N[C@H](C(=O)N[C@@H](Cc1ccc(O)cc1)C(=O)N[C@H]1CSCc2cccc(c2)CSC[C@@H](C(N)=O)NC(=O)[C@H](CO)NC(=O)[C@H](Cc2c[nH]c3ccccc23)NC(=O)[C@@H]2CC(=O)NCCC[C@H](NC(=O)[C@H]3CCCN3C(=O)[C@H](CCC(=O)O)NC1=O)C(=O)N[C@@H](Cc1c[nH]c3ccccc13)C(=O)N[C@@H](CC(C)C)C(=O)N2)C(C)C [3BP-4005] (Ac-VYCE[dP][Orn]WLDWSC-NH2; linker 3-12 via mXylylene; lactam 6-9)
100 to 794 | CC(=O)N[C@H](C(=O)N[C@@H](Cc1ccc(O)cc1)C(=O)N[C@H]1CSCc2cccc(c2)CSC[C@@H](C(N)=O)NC(=O)[C@H](CO)NC(=O)[C@H](Cc2c[nH]c3ccccc23)NC(=O)[C@H]2CC(=O)NCCCC[C@H](NC(=O)[C@H]3CCCN3C(=O)[C@H](CCC(=O)O)NC1=O)C(=O)N[C@@H](Cc1c[nH]c3ccccc13)C(=O)N[C@@H](CC(C)C)C(=O)N2)C(C)C [3BP-4043] (Ac-VYCE[dP]KWL[dD]WSC-NH2; linker 3-12 via mXylylene; lactam 6-9)
10 to 79.4 | CC(=O)N[C@H](C(=O)N[C@@H](Cc1ccc(O)cc1)C(=O)N[C@H]1CSCc2cccc(c2)CSC[C@@H](C(N)=O)NC(=O)[C@H](CO)NC(=O)[C@H](Cc2c[nH]c3ccccc23)NC(=O)[C@@H]2CC(=O)NCCCC[C@H](NC(=O)[C@H]3CCCN3C(=O)[C@H](CCC(=O)O)NC1=O)C(=O)N[C@@H](Cc1c[nH]c3ccccc13)C(=O)N[C@@H](CC(C)C)C(=O)N2)C(C)C [3BP-4046] (Ac-VYCE[dP]KWLDWSC-NH2; linker 3-12 via mXylylene; lactam 6-9)
100 to 794 | CC(=O)N[C@H](C(=O)N[C@@H](Cc1ccc(O)cc1)C(=O)N[C@H]1CSCc2cccc(c2)CSC[C@@H](C(N)=O)NC(=O)[C@H](CO)NC(=O)[C@H](Cc2c[nH]c3ccccc23)NC(=O)[C@@H]2CC(=O)NCC[C@H](NC(=O)[C@H]3CCCN3C(=O)[C@H](CCC(=O)O)NC1=O)C(=O)N[C@@H](Cc1c[nH]c3ccccc13)C(=O)N[C@@H](CC(C)C)C(=O)N2)C(C)C [3BP-4050] (Ac-VYCE[dP][Dab]WLDWSC-NH2; linker 3-12 via mXylylene; lactam 6-9)
10 to 79.4 | CC(C)C[C@@H]1NC(=O)[C@H](Cc2c[nH]c3ccccc23)NC(=O)[C@H](CCCN(C)C)NC(=O)[C@H]2CCCN2C(=O)[C@H](CCC(=O)O)NC(=O)[C@@H](NC(=O)[C@H](Cc2ccc(O)cc2)NC(=O)[C@@H](NC(=O)CN2CCC(NC(=O)CN3CCN(CC(=O)O)CCN(CC(=O)O)CCN(CC(=O)O)CC3)CC2)C(C)C)CSCc2cccc(c2)CSC[C@@H](C(N)=O)NC(=O)[C@H](CO)NC(=O)[C@H](Cc2c[nH]c3ccccc23)NC(=O)[C@H]([C@@H](C)O)NC1=O [3BP-4098] ({DOTA}-[X2]VYCE[dP][Orn(Me2)]WLTWSC-NH2; linker 4-13 via mXylylene)
< 10 | CC(C)C[C@@H]1NC(=O)[C@H](Cc2c[nH]c3ccccc23)NC(=O)[C@H](CC(=O)O)NC(=O)[C@H]2CCCN2C(=O)[C@H](CCC(=O)O)NC(=O)[C@@H](NC(=O)[C@H](Cc2ccc(O)cc2)NC(=O)[C@@H](NC(=O)CN2CCC(NC(=O)CN3CCN(CC(=O)O)CCN(CC(=O)O)CCN(CC(=O)O)CC3)CC2)C(C)C)CSCc2cccc(c2)CSC[C@@H](C(N)=O)NC(=O)[C@H](CO)NC(=O)[C@H](Cc2c[nH]c3ccccc23)NC(=O)[C@H](CCCN(C)C)NC1=O [3BP-4099] ({DOTA}-[X2]VYCE[dP]DWL[Orn(Me2)]WSC-NH2; linker 4-13 via mXylylene)
< 10 | CC(C)C[C@@H]1NC(=O)[C@H](Cc2c[nH]c3ccccc23)NC(=O)[C@H](CC(=O)O)NC(=O)[C@H]2CCCN2C(=O)[C@H](CCC(=O)O)NC(=O)[C@@H](NC(=O)[C@H](Cc2ccc(O)cc2)NC(=O)[C@@H](NC(=O)CN2CCC(NC(=O)CN3CCN(CC(=O)O)CCN(CC(=O)O)CCN(CC(=O)O)CC3)CC2)C(C)C)CSCc2cccc(c2)CSC[C@@H](C(N)=O)NC(=O)[C@H](CCCN(C)C)NC(=O)[C@H](Cc2c[nH]c3ccccc23)NC(=O)[C@H]([C@@H](C)O)NC1=O [3BP-4100] ({DOTA}-[X2]VYCE[dP]DWLTW[Orn(Me2)]C-NH2; linker 4-13 via mXylylene)
10 to 79.4 | CC(C)C[C@]1(C)NC(=O)[C@H](Cc2c[nH]c3ccccc23)NC(=O)[C@H](CC(=O)O)NC(=O)[C@H]2CCCN2C(=O)[C@H](CCC(=O)O)NC(=O)[C@@H](NC(=O)[C@H](Cc2ccc(O)cc2)NC(=O)[C@@H](NC(=O)CN2CCC(NC(=O)CN3CCN(CC(=O)O)CCN(CC(=O)O)CCN(CC(=O)O)CC3)CC2)C(C)C)CSCc2cccc(c2)CSC[C@@H](C(N)=O)NC(=O)[C@H](CO)NC(=O)[C@H](Cc2c[nH]c3ccccc23)NC(=O)[C@H]([C@@H](C)O)NC1=O [3BP-4106] ({DOTA}-[X2]VYCE[dP]DW[αMeL]TWSC-NH2; linker 4-13 via mXylylene)
< 10 | CC(C)C[C@@H]1NC(=O)[C@H](Cc2c[nH]c3ccccc23)NC(=O)[C@H](CC(=O)O)NC(=O)[C@H]2CCCN2C(=O)[C@H](CO)N(C)C(=O)[C@@H](NC(=O)[C@H](Cc2ccc(O)cc2)NC(=O)[C@@H](NC(=O)CN2CCC(NC(=O)CN3CCN(CC(=O)O)CCN(CC(=O)O)CCN(CC(=O)O)CC3)CC2)C(C)C)CSCc2cccc(c2)CSC[C@@H](C(N)=O)NC(=O)[C@H](CO)NC(=O)[C@H](Cc2c[nH]c3ccccc23)NC(=O)[C@H]([C@@H](C)O)NC1=O [3BP-4108] ({DOTA}-[X2]VYC[NMeS][dP]DWLTWSC-NH2; linker 4-13 via mXylylene)

Same assay, conditions: FACS competition on HT-29 cells, Tracer ID 3BP-2776 (10 nM, biotin-labeled), 4° C., 1 hour; read-out: pIC50 category (activity) (converted)

IC50 [nM] | SMILES
10 to 79.4 | CC(C)C[C@@H]1NC(=O)[C@H](Cc2c[nH]c3ccccc23)NC(=O)[C@@H]2CCCCNC(=O)CC[C@H](NC1=O)C(=O)N[C@@H](Cc1c[nH]c3ccccc13)C(=O)N[C@@H](CO)C(=O)N[C@H](C(N)=O)CSCc1cccc(c1)CSC[C@H](NC(=O)[C@H](Cc1ccc(O)cc1)NC(=O)[C@@H](NC(=O)CN1CCC(NC(=O)CN3CCN(CC(=O)O)CCN(CC(=O)O)CCN(CC(=O)O)CC3)CC1)C(C)C)C(=O)N[C@@H](CCC(=O)O)C(=O)N1CCC[C@@H]1C(=O)N2 [3BP-3933] ({DOTA}-[X2]VYCE[dP]KWLEWSC-NH2; linker 4-13 via mXylylene; lactam 7-10)
< 10 | CC(=O)N[C@H](C(=O)N[C@@H](Cc1ccc(O)cc1)C(=O)N[C@H]1CSCc2cccc(c2)CSC[C@@H](C(N)=O)NC(=O)[C@H](CO)NC(=O)[C@H](Cc2c[nH]c3ccccc23)NC(=O)[C@H]2CCC(=O)NCCCC[C@H](NC(=O)[C@H]3CCCN3C(=O)[C@H](CCC(=O)O)NC1=O)C(=O)N[C@@H](Cc1c[nH]c3ccccc13)C(=O)N[C@@H](CC(C)C)C(=O)N2)C(C)C [3BP-3957] (Ac-VYCE[dP]KWL[dE]WSC-NH2; linker 3-12 via mXylylene; lactam 6-9)

Source: patent US20250339569A1, “CARBONIC ANHYDRASE IX LIGANDS” (priority 2021, published 2025)
